From PubChem BioAssay (NCI)
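Cells were grown in 96-well plates and exposed to each compound for 48 hours at five concentrations; endpoints were interpolated linearly between bracketing concentrations, or set to the highest concentration if not reached. Abbreviation: GI50, concentration required for 50% inhibition of growth. TGI denotes the concentration required for complete inhibition of growth.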

Key:
Test in all cases: DTP human tumour cell line panel, 48 h
U251 CNS = system: U251 CNS
MOLT-4 leukemia = system: MOLT-4 leukemia
HCT-15 colon = system: HCT-15 colon
COLO 205 colon = system: COLO 205 colon
SW-620 colon = system: SW-620 colon
OVCAR-4 ovarian = system: OVCAR-4 ovarian
OVCAR-3 ovarian = system: OVCAR-3 ovarian
SN12C renal = system: SN12C renal
SF-268 CNS = system: SF-268 CNS
UACC-62 melanoma = system: UACC-62 melanoma
CCRF-CEM leukemia = system: CCRF-CEM leukemia
MDA-MB-231 breast = system: MDA-MB-231 breast
SK-MEL-5 melanoma = system: SK-MEL-5 melanoma
SR leukemia = system: SR leukemia
SNB-19 CNS = system: SNB-19 CNS
HL-60(TB) leukemia = system: HL-60(TB) leukemia
MALME-3M melanoma = system: MALME-3M melanoma
A549 NSCLC = system: A549 NSCLC
SNB-75 CNS = system: SNB-75 CNS
SF-295 CNS = system: SF-295 CNS
NCI-H226 lung = system: NCI-H226 lung
KM12 colon = system: KM12 colon
OVCAR-5 ovarian = system: OVCAR-5 ovarian
UACC-257 melanoma = system: UACC-257 melanoma
HS 578T breast = system: HS 578T breast
MCF7 breast = system: MCF7 breast
HOP-92 NSCLC = system: HOP-92 NSCLC
BT-549 breast = system: BT-549 breast
LOX IMVI melanoma = system: LOX IMVI melanoma
HCC-2998 colon = system: HCC-2998 colon
HOP-62 NSCLC = system: HOP-62 NSCLC
TK-10 renal = system: TK-10 renal
CAKI-1 renal = system: CAKI-1 renal
NCI/ADR-RES ovarian = system: NCI/ADR-RES ovarian
NCI-H522 lung = system: NCI-H522 lung
T-47D breast = system: T-47D breast
A498 renal = system: A498 renal
SK-OV-3 ovarian = system: SK-OV-3 ovarian
OVCAR-8 ovarian = system: OVCAR-8 ovarian
K-562 leukemia = system: K-562 leukemia
MDA-MB-435 = system: MDA-MB-435
UO-31 renal = system: UO-31 renal
RPMI-8226 leukemia = system: RPMI-8226 leukemia
SK-MEL-2 melanoma = system: SK-MEL-2 melanoma
PC-3 prostate = system: PC-3 prostate
ACHN renal = system: ACHN renal
786-0 renal = system: 786-0 renal
IGROV1 ovarian = system: IGROV1 ovarian
RXF 393 renal = system: RXF 393 renal
SK-MEL-28 melanoma = system: SK-MEL-28 melanoma
NCI-H460 lung = system: NCI-H460 lung
HCT-116 colon = system: HCT-116 colon
DU-145 prostate = system: DU-145 prostate
NCI-H23 lung = system: NCI-H23 lung
M14 melanoma = system: M14 melanoma
HT29 colon = system: HT29 colon
SF-539 CNS = system: SF-539 CNS
EKVX NSCLC = system: EKVX NSCLC

## CCCCCCCNc1nc(C(=O)OCC)ncc1-c1ccc(C(F)(F)F)cc1
U251 CNS
  GI50: 34.1 µM
  TGI: > 100 µM
MOLT-4 leukemia
  GI50: 34.4 µM
  TGI: 96.2 µM
HCT-15 colon
  GI50: 33.2 µM
  TGI: > 100 µM
COLO 205 colon
  GI50: 26.8 µM
  TGI: 88.1 µM
SW-620 colon
  GI50: 41.5 µM
  TGI: > 100 µM
OVCAR-4 ovarian
  GI50: 13.8 µM
  TGI: > 100 µM
OVCAR-3 ovarian
  GI50: 32.6 µM
  TGI: > 100 µM
SN12C renal
  GI50: 33.8 µM
  TGI: > 100 µM
SF-268 CNS
  GI50: 48.2 µM
  TGI: > 100 µM
UACC-62 melanoma
  GI50: 25.2 µM
  TGI: > 100 µM
CCRF-CEM leukemia
  GI50: 29.5 µM
  TGI: > 100 µM
MDA-MB-231 breast
  GI50: 33.3 µM
  TGI: > 100 µM
SK-MEL-5 melanoma
  GI50: 20.6 µM
  TGI: 51.9 µM
SR leukemia
  GI50: 35.5 µM
  TGI: > 100 µM
SNB-19 CNS
  GI50: 33.4 µM
  TGI: > 100 µM
HL-60(TB) leukemia
  GI50: 30.4 µM
  TGI: 88.8 µM
MALME-3M melanoma
  GI50: 41.8 µM
  TGI: > 100 µM
A549 NSCLC
  GI50: > 100 µM
  TGI: > 100 µM
SNB-75 CNS
  GI50: 41.7 µM
  TGI: > 100 µM
SF-295 CNS
  GI50: 26.4 µM
  TGI: > 100 µM
NCI-H226 lung
  GI50: 30.5 µM
  TGI: > 100 µM
KM12 colon
  GI50: 33.6 µM
  TGI: > 100 µM
OVCAR-5 ovarian
  GI50: > 100 µM
  TGI: > 100 µM
UACC-257 melanoma
  GI50: 26.6 µM
  TGI: 75.6 µM
HS 578T breast
  GI50: 46.6 µM
  TGI: > 100 µM
MCF7 breast
  GI50: 28.1 µM
  TGI: > 100 µM
HOP-92 NSCLC
  GI50: 24.8 µM
  TGI: > 100 µM
BT-549 breast
  GI50: 29.1 µM
  TGI: 97.7 µM
LOX IMVI melanoma
  GI50: 40.9 µM
  TGI: > 100 µM
HCC-2998 colon
  GI50: 41.5 µM
  TGI: > 100 µM
HOP-62 NSCLC
  GI50: 55.7 µM
  TGI: > 100 µM
TK-10 renal
  GI50: 51.2 µM
  TGI: > 100 µM
CAKI-1 renal
  GI50: 38.2 µM
  TGI: > 100 µM
NCI/ADR-RES ovarian
  GI50: 34.5 µM
  TGI: > 100 µM
NCI-H522 lung
  GI50: 31.3 µM
  TGI: > 100 µM
T-47D breast
  GI50: 28.1 µM
  TGI: > 100 µM
A498 renal
  GI50: 16 µM
  TGI: > 100 µM
SK-OV-3 ovarian
  GI50: 39.1 µM
  TGI: > 100 µM
OVCAR-8 ovarian
  GI50: 40.2 µM
  TGI: > 100 µM
K-562 leukemia
  GI50: 36.8 µM
  TGI: > 100 µM
MDA-MB-435
  GI50: 32.1 µM
  TGI: > 100 µM
UO-31 renal
  GI50: 16.4 µM
  TGI: 77.1 µM
RPMI-8226 leukemia
  GI50: 17.8 µM
  TGI: 66.9 µM
SK-MEL-2 melanoma
  GI50: 26.6 µM
  TGI: 66.7 µM
PC-3 prostate
  GI50: 26.6 µM
  TGI: > 100 µM
ACHN renal
  GI50: 32 µM
  TGI: > 100 µM
786-0 renal
  GI50: 39.3 µM
  TGI: > 100 µM
IGROV1 ovarian
  GI50: 24.7 µM
  TGI: 70.9 µM
RXF 393 renal
  GI50: 19 µM
  TGI: 71.1 µM
SK-MEL-28 melanoma
  GI50: 66.2 µM
  TGI: > 100 µM
NCI-H460 lung
  GI50: 14.7 µM
  TGI: 32.7 µM
HCT-116 colon
  GI50: 32 µM
  TGI: > 100 µM
DU-145 prostate
  GI50: 46.1 µM
  TGI: > 100 µM
NCI-H23 lung
  GI50: 42.2 µM
  TGI: > 100 µM
M14 melanoma
  GI50: 35.8 µM
  TGI: > 100 µM
HT29 colon
  GI50: 41.5 µM
  TGI: > 100 µM

## CCC(=O)O[C@H]1CC[C@H]2[C@@H]3CC[C@H]4CC(=O)[C@H](C)C[C@]4(C)[C@H]3CC[C@]12C
U251 CNS
  GI50: 34 µM
  TGI: > 100 µM
MOLT-4 leukemia
  GI50: 9.11 µM
  TGI: > 85.6 µM
HCT-15 colon
  GI50: 37.7 µM
  TGI: > 100 µM
COLO 205 colon
  GI50: 28.3 µM
  TGI: > 100 µM
SW-620 colon
  GI50: 31.9 µM
  TGI: > 100 µM
OVCAR-4 ovarian
  GI50: > 79.1 µM
  TGI: > 100 µM
OVCAR-3 ovarian
  GI50: 31.2 µM
  TGI: > 84.1 µM
SN12C renal
  GI50: > 85.2 µM
  TGI: > 100 µM
SF-268 CNS
  GI50: > 75.7 µM
  TGI: > 100 µM
UACC-62 melanoma
  GI50: 13.9 µM
  TGI: > 100 µM
CCRF-CEM leukemia
  GI50: 18.8 µM
  TGI: > 100 µM
MDA-MB-231 breast
  GI50: > 90.8 µM
  TGI: > 100 µM
SK-MEL-5 melanoma
  GI50: 5.89 µM
  TGI: > 60.9 µM
SR leukemia
  GI50: 3.21 µM
  TGI: 21.8 µM
SNB-19 CNS
  GI50: > 100 µM
  TGI: > 100 µM
HL-60(TB) leukemia
  GI50: 5.57 µM
  TGI: 24.3 µM
MALME-3M melanoma
  GI50: 45.7 µM
  TGI: > 100 µM
A549 NSCLC
  GI50: 19.5 µM
  TGI: > 57.5 µM
SNB-75 CNS
  GI50: > 100 µM
  TGI: > 100 µM
SF-295 CNS
  GI50: 20.9 µM
  TGI: > 78 µM
NCI-H226 lung
  GI50: > 96.2 µM
  TGI: > 100 µM
KM12 colon
  GI50: 34.6 µM
  TGI: > 100 µM
OVCAR-5 ovarian
  GI50: 74.8 µM
  TGI: > 100 µM
UACC-257 melanoma
  GI50: 20.8 µM
  TGI: 92.7 µM
HS 578T breast
  GI50: 44 µM
  TGI: > 100 µM
MCF7 breast
  GI50: 23.9 µM
  TGI: > 66.1 µM
HOP-92 NSCLC
  TGI: 63 µM
BT-549 breast
  GI50: 37 µM
  TGI: > 100 µM
LOX IMVI melanoma
  GI50: 25.2 µM
  TGI: > 100 µM
HCC-2998 colon
  GI50: 49.7 µM
  TGI: > 100 µM
HOP-62 NSCLC
  GI50: 37.7 µM
  TGI: > 100 µM
TK-10 renal
  GI50: 43.7 µM
  TGI: > 100 µM
CAKI-1 renal
  GI50: > 41.7 µM
  TGI: > 100 µM
NCI/ADR-RES ovarian
  GI50: 38.3 µM
  TGI: > 100 µM
NCI-H522 lung
  GI50: 38.4 µM
  TGI: > 100 µM
SF-539 CNS
  GI50: > 83.5 µM
  TGI: > 100 µM
T-47D breast
  GI50: 26 µM
  TGI: > 100 µM
A498 renal
  GI50: 28 µM
  TGI: > 100 µM
SK-OV-3 ovarian
  GI50: > 81.7 µM
  TGI: > 100 µM
OVCAR-8 ovarian
  GI50: 43.1 µM
  TGI: > 100 µM
K-562 leukemia
  GI50: 5.51 µM
  TGI: > 59.5 µM
MDA-MB-435
  GI50: 48.7 µM
  TGI: > 100 µM
UO-31 renal
  GI50: 24.5 µM
  TGI: > 100 µM
RPMI-8226 leukemia
  GI50: 2.52 µM
  TGI: 13 µM
SK-MEL-2 melanoma
  GI50: 32 µM
  TGI: > 100 µM
PC-3 prostate
  GI50: 10.5 µM
  TGI: > 100 µM
ACHN renal
  GI50: 38 µM
  TGI: > 100 µM
786-0 renal
  GI50: 43.3 µM
  TGI: > 100 µM
IGROV1 ovarian
  GI50: > 60.5 µM
  TGI: > 100 µM
RXF 393 renal
  GI50: 30.5 µM
  TGI: > 100 µM
SK-MEL-28 melanoma
  GI50: > 88.7 µM
  TGI: > 100 µM
NCI-H460 lung
  GI50: 13 µM
  TGI: 97.4 µM
HCT-116 colon
  GI50: 4.49 µM
  TGI: > 42.6 µM
DU-145 prostate
  GI50: > 79.7 µM
  TGI: > 100 µM
EKVX NSCLC
  GI50: 22.1 µM
  TGI: > 100 µM
NCI-H23 lung
  GI50: 43.6 µM
  TGI: > 100 µM
M14 melanoma
  GI50: 48.1 µM
  TGI: > 100 µM
HT29 colon
  GI50: 19.2 µM
  TGI: > 100 µM
